Results on 19 molecules are retold here after US11479528B2, “Heat shock protein 90 inhibitors” (TAIPEI MEDICAL UNIVERSITY, priority 2017, dated 2022).

One data set has as its system colorectal HCT116. As to the kind of experiment: Sulforhodamine B (SRB) assay, colorectal HCT116. In kind it is cell-based. Conditions: Homo sapiens, HCT-116, SRB. The protocol: (§1) Human cancer cells were purchased from the American Type Culture Collection (Manassas, Va., USA). These cell lines were cultured in RPMI 1640 medium or DMEM supplemented with 10% FBS (v/v) and pencillin (100 U/mL)/streptomycin (100 ug/mL)/amphotericin B (0.25 ug/mL). Cultures were maintained at 37° C. in a humidified atmosphere of 5% CO2/95% air.
(§2) Cells were seeded in 96-well plates in medium with 5% fetal bovine serum. After 24 h, cells were fixed with 10% trichloroacetic acid to represent cell population at the time of drug addition (T0). After additional incubation of DMSO or drugs for 48 h, cells were fixed with 10% trichloroacetic acid and sulforhodamine B at 0.4% (w/v) in 1% acetic acid was added to stain cells. Unbound sulforhodamine B was washed out by 1% acetic acid and sulforhodamine B-bound cells were solubilized with 10 mmol/L Trizma base. The absorbance was read at a wavelength of 515 nm. Using the following absorbance measurements, such as time zero (T0), control growth (C), and cell growth in the presence of the drug (Tx), the percentage growth was calculated at each of the compound concentrations levels. Percentage growth inhibition was calculated as […].
For orientation: The SRB assay estimates cell density from bound dye.

Another data set has as its target HSP90 α protein (Homo sapiens, UniProt P07900). As to the kind of experiment: HSP90 ATP-binding / fluorescence polarization competition assay (enzyme inhibition). Conditions: 5 nM fluorescent GM, 30 nM HSP90 α; read-out: HSP90 IC50 enzyme inhibition. The protocol: To assess the inhibition of HSP90 activity within a cellular context, cells were treated with certain substituted aromatic compounds of formula (I) and the inhibition of HSP90 ATP-binding activity in cells was determined by using an ATP pull-down assay. Cells were treated with the compounds for 24 hours and then lysed in TNESV buffer (50 mM Tris, 2 mM EDTA, […], 1 mM activated sodium orthovanadate, 25 mM NaF, 1% Triton X-100 [pH 7.5]) for 30 min at 4° C. Lysates were spun for 30 min at 12000 rpm at 4° C. Protein (200 ug) was incubated with conditioned γ-ATP-polyacrylamide resin in incubation buffer (10 mM Tris-HCl, 50 mM KCl, 5 mM MgCl2, 20 mM Na2MoO4, 0.01% Nonidet P-40) overnight at 4° C., rotating. The resin was then washed four times with incubation buffer. Bound proteins were isolated by boiling with SDS buffer. For the competition studies, fluorescence polarization assays were performed under the following conditions: each 96-well plate contained 5 nM fluorescent GM (geldanamycin), 30 nM HSP90 α protein, and tested inhibitor in a final volume of 100 uL. For each assay, background wells (buffer only), tracer controls (free, fluorescent GMonly), and bound GM controls (fluorescent GM in the presence of HSP90) were included on each assay plate. The fraction of tracer bound to HSP90 was correlated to the mP value and plotted against log 10 values of competitor concentrations. The inhibitor concentration at which 50% of bound GM was displaced was obtained by fitting the data.
Background: Fluorescence polarisation rises when a labelled molecule tumbles more slowly, as on binding a larger partner.

The next data set has as its system liver Hep3B. Description: Sulforhodamine B (SRB) assay, liver Hep3B. Type of data set: cell-based. Conditions: Homo sapiens, Table 1, SRB, 48 h, read-out: GI50 Liver Hep3B. On the procedure: as §1, §2
For a further data set, the system named is HUVEC cells. As to the kind of experiment: Sulforhodamine B (SRB) assay, HUVEC. Conditions: Homo sapiens, HUVEC, 48 h, read-out: GI50 HUVEC. The protocol:
as §1, §2

The test system of a further data set is lung A549. Description: Sulforhodamine B (SRB) assay, lung A549. In kind it is cell-based, human. Conditions: Homo sapiens, A549, SRB. On the procedure:
Human cancer cells were purchased from the American Type Culture Collection (Manassas, Va., USA).
Cells were seeded in 96-well plates in medium with 5% fetal bovine serum. […] Unbound sulforhodamine B was washed out by 1% acetic acid and sulforhodamine B-bound cells were solubilized with 10 mmol/L Trizma base. […] Using the following absorbance measurements, such as time zero (T0), control growth (C), and cell growth in the presence of the drug (Tx), the percentage growth was calculated at each of the compound concentrations levels. Percentage growth inhibition was calculated as […].

Data set [1] can be described thus: Pharmacokinetic profiles in rat. Conditions: in vivo; for half-life: T1/2, rat.
Method: A pharmacokinetic study was conducted to evaluate the pharmacokinetic properties of compounds of formula (I).
The next data set has as its system breast MDA-MB-231. As to the kind of experiment: Sulforhodamine B (SRB) assay, breast MDA-MB-231. Type of data set: cell-based. Conditions: Homo sapiens, MDA-MB-231; Table 1; SRB, 48 h; read-out: GI50 Breast MDA-MB-231. The protocol: as §1, §2
In data set [2] the test system is human colon HCT116 xenograft. As to the kind of experiment: Human colon HCT116 xenograft model. Conditions: 100 mg/kg, qd, po; n = 7-8. The protocol: An in vivo study was conducted to evaluate the efficacy of compounds of formula (I) in suppressing tumor growth in a human colon HCT116 xenograft model.
(In general: Xenograft models place foreign cells or tissue in a host animal.)

In a further data set the test system is prostate PC3. As to the kind of experiment: Sulforhodamine B (SRB) assay, prostate PC3. In kind it is cell-based. Conditions: Homo sapiens, Table 1, 48 h. The protocol:
as §1, §2

[3] abbreviates: Table 1, 48 h, read-out: GI50 Colorectal HCT116.
[4] abbreviates: Table 1, 48 h, read-out: GI50 Lung A549.

The term GI50 denotes the concentration at which growth is held to half of that of the control. One may read the IC50 as the concentration at which inhibition is half-maximal. For orientation: Vd means the apparent volume that relates the amount in the body to the concentration in plasma or blood. Low readings indicate confinement near the circulation, high ones extensive tissue distribution. As a reminder, the AUC(0-inf) is the area under the concentration-time curve extrapolated to infinity. As a reminder, the clearance is a measure of how efficiently the substance is removed, as volume per time. A higher clearance goes with a high capacity for elimination. Usually half-life stands for how long it takes for the measured level to halve. Read a high half-life as slow decline. For orientation: Cmax means the peak of the concentration-time curve. Usually Tmax stands for the time from dosing to the highest level. Usually bioavailability stands for the share of a dose that reaches the circulation, judged against a reference dose that is usually intravenous. High values mean good availability, low ones poor availability.

Read-outs that look alike come from different tables or passages of the source.

On to `CCN(C(=O)c1cc(C(C)C)c(O)cc1O)c1ccncc1` [Compound 19b, N-ethyl-2,4-dihydroxy-5-isopropyl-N-(pyridin-4-yl)benzamide], for which the GI50 is 0.64 ± 0.41 µM with colorectal HCT116 (setting [3]); 0.64 ± 0.41 µM in the data set on colorectal HCT116 (Table 2, read-out: HCT116 GI50); 0.1 ± 0.01 µM in the data set with liver Hep3B; less than 0.1 µM in the data set on HUVEC cells; 0.12 ± 0.01 µM in the data set with lung A549 (setting [4]); 0.12 ± 0.01 µM in the data set with lung A549 (Table 2, read-out: A549 GI50). Further, the concentration for 50% growth inhibition (GI50) in the data set with breast MDA-MB-231 was 0.08 ± 0.01 µM. Moreover, the half-maximal inhibitory concentration (IC50) on HSP90 α protein is 0.109 ± 0.00535 µM. For the same molecule, the Vd in [1] (iv, 2 mg/kg) is 12 ± 8.9 L/kg. In addition, the AUC(0-inf) in data set [1] (iv, 2 mg/kg, IV (2 mg/kg)) amounted to 442 ± 49 ng·h/mL; in data set [1] (po, 20 mg/kg, PO (20 mg/kg)) it was 485 ± 103 ng·h/mL. Moreover, in [1] (iv, 2 mg/kg, CL, IV (2 mg/kg)), the clearance stood at 75 ± 4.8 mL/min/kg. In addition, the half-life in [1] (iv, 2 mg/kg, IV (2 mg/kg)) was 8.1 ± 4.7 h; in data set [1] (po, 20 mg/kg, PO (20 mg/kg)), 11 ± 7.6 h. Besides, the concentration in data set [1] (po, 20 mg/kg) peaked (Cmax) at 51 ± 9 ng/mL. For the same molecule, the time to peak (Tmax) in [1] (po, 20 mg/kg) is 0.3 ± 0.1 h. For the same molecule, the bioavailability in [1] (po, 20 mg/kg) came out at 11%. For the same molecule, the “TGI, tumor growth inhibition” value in data set [2] was found to be 29.1%.
`CCCN(C(=O)c1cc(C(C)C)c(O)cc1O)c1ncnc2c1ccn2C` [Compound 27d, 2,4-dihydroxy-5-isopropyl-N-(7-methyl-7H-pyrrolo[2,3-d]pyrimidin-4-yl)-N-propylbenzamide]: the GI50 in the data set with colorectal HCT116 (setting [3]) and in the data set with prostate PC3 was more than 10 µM in each case.
Consider `CC(C)c1cc(C(=O)N(c2ncnc3c2ccn3C)C(C)C)c(O)cc1O` [Compound 27e, 2,4-dihydroxy-N, 5-diisopropyl-N-(7-methyl-7H-pyrrolo[2,3-d]pyrimidin-4-yl)benzamide], for which the GI50 in the data set with colorectal HCT116 (setting [3]) is 8.77 ± 0.1 µM; with prostate PC3, more than 10 µM.
`CCN(C(=O)c1cc(C(C)C)c(O)cc1O)c1ccc2c(c1)CCCN2` [Compound 33b, N-ethyl-2,4-dihydroxy-5-isopropyl-N-(1,2,3,4-tetrahydroquinolin-6-yl)benzamide]: the GI50 in the data set on colorectal HCT116 (setting [3]) worked out at 5.38 ± 0.1 µM; with prostate PC3, 6.01 ± 0.41 µM.
Turning to `CCCN(C(=O)c1cc(C(C)C)c(O)cc1O)c1cnc2ccccc2c1` [Compound 28d, 2,4-dihydroxy-5-isopropyl-N-propyl-N-(quinolin-3-yl)benzamide], the GI50 turned out to be 1.21 ± 0.13 µM with colorectal HCT116 (setting [3]), 1.16 ± 0.1 µM in the data set with lung A549 (setting [4]) and 2.33 ± 0.04 µM in the data set with prostate PC3.
Regarding `CC(C)c1cc(C(=O)N(C)c2cccc3cccnc23)c(O)cc1O` [Compound 31b, 2,4-dihydroxy-5-isopropyl-N-methyl-N-(quinolin-8-yl)benzamide], the GI50 in the data set on colorectal HCT116 (setting [3]) is more than 10 µM; with lung A549 (setting [4]), 8.7 ± 0.25 µM; in the data set with prostate PC3, 8.93 ± 0.25 µM.
For `CCN(C(=O)c1cc(C(C)C)c(O)cc1O)c1ccc2c(c1)CCCN2C` [Compound 33d, N-ethyl-2,4-dihydroxy-5-isopropyl-N-(1-methyl-1,2,3,4-tetrahydroquinolin-6-yl)benzamide], the results for the GI50 with colorectal HCT116 (setting [3]) and with prostate PC3 were 5.71 ± 0.12 µM and 8.18 ± 0.46 µM, respectively.
Turning to `CC(C)c1cc(C(=O)Nc2ncnc3c2ccn3C)c(O)cc1O` [Compound 27a, 2,4-dihydroxy-5-isopropyl-N-(7-methyl-7H-pyrrolo[2,3-d]pyrimidin-4-yl)benzamide], the GI50 in the data set with colorectal HCT116 (setting [3]) and with prostate PC3 was more than 10 µM throughout.
Regarding `CC(C)c1cc(C(=O)N(C)c2ccc3c(c2)CCCN3C)c(O)cc1O` [Compound 33c, 2,4-dihydroxy-5-isopropyl-N-methyl-N-(1-methyl-1,2,3,4-tetrahydroquinolin-6-yl)benzamide], the GI50 is 6.51 ± 0.09 µM in the data set on colorectal HCT116 (setting [3]) and 8.5 ± 0.45 µM in the data set with prostate PC3.
In the case of `CC(C)c1cc(C(=O)Nc2cnc3[nH]ncc3c2)c(O)cc1O` [Compound 26a, 2,4-dihydroxy-5-isopropyl-N-(1H-pyrazolo[3,4-b]pyridin-5-yl)benzamide], the GI50 in the data set with colorectal HCT116 (setting [3]), with lung A549 (setting [4]) and in the data set on prostate PC3 was more than 10 µM each time.
In the case of `CCN(C(=O)c1cc(C(C)C)c(O)cc1O)c1cc(C)nc2ccccc12` [Compound 32c, N-ethyl-2,4-dihydroxy-5-isopropyl-N-(2-methylquinolin-4-yl)benzamide], the GI50 in the data set on colorectal HCT116 (setting [3]) came out at 5.99 ± 0.3 µM; in the data set with lung A549 (setting [4]), 5.67 ± 0.06 µM; with prostate PC3 it was 6.3 ± 0.3 µM.
As to `CC(C)c1cc(C(=O)N(C)c2cccc3ncccc23)c(O)cc1O` [Compound 29b, 2,4-dihydroxy-5-isopropyl-N-methyl-N-(quinolin-5-yl)benzamide], the GI50 in the data set with colorectal HCT116 (setting [3]), in the data set with lung A549 (setting [4]) and in the data set on prostate PC3 was more than 10 µM in each case.
For `CC(C)c1cc(C(=O)N(C)c2cnc3ccccc3c2)c(O)cc1O` [Compound 28b, 2,4-dihydroxy-5-isopropyl-N-methyl-N-(quinolin-3-yl)benzamide], the GI50 in the data set on lung A549 (setting [4]) and in the data set on prostate PC3 was more than 10 µM throughout.
Regarding `CC(C)c1cc(C(=O)Nc2cnc3c(ccn3C)c2)c(O)cc1O` [Compound 24b, 2,4-dihydroxy-5-isopropyl-N-(1-methyl-1H-pyrrolo[2,3-b]pyridin-5-yl)benzamide], the concentration for 50% growth inhibition (GI50) with colorectal HCT116 (setting [3]), with lung A549 (setting [4]) and in the data set on prostate PC3 was more than 10 µM in each case.
With `CC(C)c1cc(C(=O)N(C)c2ncnc3c2ccn3C)c(O)cc1O` [Compound 27b, 2,4-dihydroxy-5-isopropyl-N-methyl-N-(7-methyl-7H-pyrrolo[2,3-d]pyrimidin-4-yl)benzamide], the results for the GI50 in the data set with colorectal HCT116 (setting [3]) and in the data set on prostate PC3 were 8.96 ± 0.18 µM and 8.49 ± 0.49 µM, respectively.
With `CC(C)c1cc(C(=O)Nc2cnc3ccccc3c2)c(O)cc1O` [Compound 28a, 2,4-dihydroxy-5-isopropyl-N-(quinolin-3-yl)benzamide], the GI50 in the data set on lung A549 (setting [4]) and with prostate PC3 was more than 10 µM throughout.
On to `CC(C)c1cc(C(=O)N(C)c2ccc3c(c2)CCCN3)c(O)cc1O` [Compound 33a, 2,4-dihydroxy-5-isopropyl-N-methyl-N-(1,2,3,4-tetrahydroquinolin-6-yl)benzamide], for which the GI50 turned out to be 5.79 ± 0.11 µM in the data set with colorectal HCT116 (setting [3]) and 7.66 ± 0.42 µM with prostate PC3.
In the case of `CCN(C(=O)c1cc(C(C)C)c(O)cc1O)c1ncnc2c1ccn2C` [Compound 27c, N-ethyl-2,4-dihydroxy-5-isopropyl-N-(7-methyl-7H-pyrrolo[2,3-d]pyrimidin-4-yl)benzamide], the results for the GI50 with colorectal HCT116 (setting [3]) and in the data set with prostate PC3 were 3.49 ± 0.15 µM and 6.68 ± 0.55 µM, respectively.
`CCN(C(=O)c1cc(C(C)C)c(O)cc1O)c1cccc2cccnc12` [Compound 31c, N-ethyl-2,4-dihydroxy-5-isopropyl-N-(quinolin-8-yl)benzamide]: the values for the GI50 in the data set with lung A549 (setting [4]) and with prostate PC3 were 3.7 ± 0.17 µM and 2.4 ± 0.27 µM, respectively.
